We go through eight compounds from paper PMC6429263, “Evolution and Antibacterial Evaluation of 8-Hydroxy-cycloberberine Derivatives as a Novel Family of Antibacterial Agents Against MRSA” (Molecules, 2019).

One may read the MIC as the smallest concentration in the dilution series that meets the test's criterion for growth inhibition.

One test concerns MSSA 15. The test can be described thus: MIC, agar dilution, MSSA 15 (clinical isolate). It counts as cell-based, S. aureus. The settings on record: Staphylococcus aureus; MSSA 15, isolated from patients in China; read-out: MIC. For orientation: In agar dilution the substance is mixed into plates at graded concentrations.
The subject of another test is MSSE ATCC 12228. The test can be described thus: MIC, agar dilution, MSSE ATCC 12228. The settings on record: Staphylococcus epidermidis, ATCC12228; MSSE ATCC 12228; read-out: MIC. It counts as cell-based, S. epidermidis.
Another test concerns MRSA ATCC 43300. The test can be described thus: MIC, agar dilution, MRSA ATCC 43300. It counts as cell-based. Conditions: Staphylococcus aureus; MRSA ATCC 43300; read-out: MIC.
The subject of another test is MRSA 16-34. The test can be described thus: MIC, agar dilution, MRSA 16-34. It counts as cell-based. Conditions: Staphylococcus aureus; MRSA 16-34; read-out: MIC.
For a further test, the system named is MSSE 16-5. The test can be described thus: MIC, agar dilution, MSSE 16-5 (clinical isolate). The settings on record: Staphylococcus epidermidis; MSSE 16-5, isolated from patients in China; read-out: MIC. Format: cell-based, S. epidermidis.
In a further test the test system is MRSA ATCC-B AA-1708. The test can be described thus: MIC, agar dilution, MRSA ATCC-BAA-1708 (mupA positive). It counts as cell-based. Conditions: Staphylococcus aureus; MRSA ATCC-BAA-1708, mupA positive (mupirocin resistance); read-out: MIC.
In a further test the test system is S.s ATCC 15305. The test can be described thus: MIC, agar dilution, S.s ATCC 15305. It counts as cell-based. The settings on record: Staphylococcus saprophyticus, ATCC15305; S. saprophyticus ATCC 15305; read-out: MIC.
The next test has as its system S.h ATCC 35982. The test can be described thus: MIC, agar dilution, S.h ATCC 35982. Conditions: Staphylococcus hominis, ATCC35982; S. hominis ATCC 35982; read-out: MIC. It counts as cell-based.
A further test deals with VISA ATCC 700699. The test can be described thus: MIC, agar dilution, VISA ATCC 700699. Format: cell-based. Conditions: Staphylococcus aureus; VISA ATCC 700699; read-out: MIC.
For the next test, the system named is VISA ATCC 700698. The test can be described thus: MIC, agar dilution, VISA ATCC 700698. Format: cell-based. Conditions: Staphylococcus aureus; VISA ATCC 700698; read-out: MIC.
For a further test, the system named is MSSA 16-1. The test can be described thus: MIC, agar dilution, MSSA 16-1 (clinical isolate). It counts as cell-based, S. aureus. The settings on record: Staphylococcus aureus; MSSA 16-1, isolated from patients in China; read-out: MIC.
For another test, the system named is MSSA ATCC 29213. The test can be described thus: MIC, agar dilution, MSSA ATCC 29213. Conditions: Staphylococcus aureus; MSSA ATCC 29213; read-out: MIC. It counts as cell-based, S. aureus.
Another test relates to MRSA ATCC -BAA-976. The test can be described thus: MIC, agar dilution, MRSA ATCC-BAA-976 (clindamycin-resistant). The settings on record: Staphylococcus aureus; MRSA ATCC-BAA-976, clindamycin-resistant S. aureus; read-out: MIC. Format: cell-based.
The test system of the next test is MRSA 13-23. The test can be described thus: MIC, agar dilution, MRSA 13-23. Format: cell-based. The settings on record: Staphylococcus aureus; MRSA 13-23; read-out: MIC.
Another test concerns MRSE 13-3. The test can be described thus: MIC, agar dilution, MRSE 13-3. Format: cell-based, S. epidermidis. Conditions: Staphylococcus epidermidis; MRSE 13-3; read-out: MIC.
In another test the test system is MRSE 16-5. The test can be described thus: MIC, agar dilution, MRSE 16-5. The settings on record: Staphylococcus epidermidis; MRSE 16-5; read-out: MIC. Format: cell-based, S. epidermidis.
Another test concerns MRSA 13-18. The test can be described thus: MIC, agar dilution, MRSA 13-18. Format: cell-based. Conditions: Staphylococcus aureus; MRSA 13-18; read-out: MIC.

Regarding `COc1ccc2c(c[n+]3ccc4cc5c(c6c(Cc7ccc(C(C)(C)C)cc7)cc2c3c46)OCO5)c1O` [13k, 1,2-Methylenedioxy-8-hydroxy-9-methoxy-13-p-tert-butylmethylbenzylcyclo berberine chloride], the MIC in the test with MSSA 15 turned out to be 32 µg/mL; in the test on MSSE ATCC 12228, 16 µg/mL; in the test on MRSA ATCC 43300, 32 µg/mL; in the test on MRSA 16-34, 16 µg/mL; in the test with MSSE 16-5, 8 µg/mL; in the test on MRSA ATCC-B AA-1708, 8 µg/mL. Moreover, the MIC in the test on S.s ATCC 15305 was found to be 32 µg/mL; with S.h ATCC 35982 it was 32 µg/mL; in the test with VISA ATCC 700699, 32 µg/mL; with VISA ATCC 700698 it was 32 µg/mL; in the test with MSSA 16-1, 16 µg/mL; in the test on MSSA ATCC 29213, 32 µg/mL. Also, the MIC in the test with MRSA ATCC -BAA-976 is 16 µg/mL; in the test on MRSA 13-23 it was 32 µg/mL; in the test with MRSE 13-3, 8 µg/mL; in the test with MRSE 16-5, 8 µg/mL; in the test on MRSA 13-18, 16 µg/mL.
For `COc1ccc2c(c[n+]3ccc4cc5c(c6c(Cc7ccc(OC(F)(F)F)cc7)cc2c3c46)OCO5)c1O` [13l, 1,2-Methylenedioxy-8-hydroxy-9-methoxy-13-p-trifluoromethoxybenzylcyclo berberine chloride], the MIC with MSSA 15 came out at 32 µg/mL; in the test on MSSE ATCC 12228 it was 32 µg/mL; in the test with MRSA ATCC 43300 it was 64 µg/mL; in the test on MRSA 16-34, 32 µg/mL; in the test on MSSE 16-5, 32 µg/mL; in the test with MRSA ATCC-B AA-1708 it was 32 µg/mL. The minimum inhibitory concentration (MIC) with S.s ATCC 15305 worked out at 64 µg/mL; with S.h ATCC 35982 it was 64 µg/mL; with VISA ATCC 700699, 32 µg/mL; with VISA ATCC 700698 it was 64 µg/mL; with MSSA 16-1 it was 32 µg/mL; in the test on MSSA ATCC 29213 it was 32 µg/mL. In addition, the MIC with MRSA ATCC -BAA-976 is 64 µg/mL; in the test with MRSA 13-23, 32 µg/mL; in the test with MRSE 13-3, 32 µg/mL; with MRSE 16-5, 32 µg/mL; in the test with MRSA 13-18, 32 µg/mL.
Regarding `COc1ccc2c(c[n+]3ccc4cc5c(c6c(Cc7ccccc7C#N)cc2c3c46)OCO5)c1O` [13m, 1,2-Methylenedioxy-8-hydroxy-9-methoxy-13-o-cyanbenzylcycloberberine chloride], the MIC in the test with MSSA 15, in the test with MSSE ATCC 12228, in the test on MRSA ATCC 43300, in the test on MRSA 16-34, with MSSE 16-5 and in the test on MRSA ATCC-B AA-1708 was above 64 µg/mL in each case. In addition, the MIC with S.s ATCC 15305, in the test with S.h ATCC 35982, in the test with VISA ATCC 700699, in the test with VISA ATCC 700698, in the test on MSSA 16-1 and in the test on MSSA ATCC 29213 was above 64 µg/mL throughout. Moreover, the MIC in the test on MRSA ATCC -BAA-976, in the test with MRSA 13-23, in the test on MRSE 13-3, in the test with MRSE 16-5 and with MRSA 13-18 was above 64 µg/mL throughout.
As for `COc1ccc2c(c[n+]3ccc4cc5c(c6c(Cc7cccc(C#N)c7)cc2c3c46)OCO5)c1O` [13n, 1,2-Methylenedioxy-8-hydroxy-9-dimethoxy-13-m-cyanbenzylcycloberberine chloride], the MIC is above 64 µg/mL in the test on MSSA 15; 16 µg/mL with MSSE ATCC 12228; above 64 µg/mL in the test on MRSA ATCC 43300; above 64 µg/mL in the test on MRSA 16-34; 32 µg/mL with MSSE 16-5; above 64 µg/mL with MRSA ATCC-B AA-1708. For the same compound, the MIC was above 64 µg/mL in the test with S.s ATCC 15305; 64 µg/mL in the test with S.h ATCC 35982; above 64 µg/mL with VISA ATCC 700699; above 64 µg/mL in the test on VISA ATCC 700698; above 64 µg/mL in the test on MSSA 16-1; above 64 µg/mL in the test on MSSA ATCC 29213. In addition, the MIC in the test on MRSA ATCC -BAA-976 is above 64 µg/mL; in the test with MRSA 13-23 it was above 64 µg/mL; in the test with MRSE 13-3, 64 µg/mL; in the test on MRSE 16-5, 32 µg/mL; in the test with MRSA 13-18, above 64 µg/mL.
As for `COc1ccc2c(c[n+]3ccc4cc5c(c6c(Cc7cccc([N+](=O)[O-])c7)cc2c3c46)OCO5)c1O` [13q, 1,2-Methylenedioxy-8-hydroxy-9-methoxy-13-m-nitrobenzylcycloberberine chloride], the MIC is above 64 µg/mL in the test with MSSA 15; 64 µg/mL in the test on MSSE ATCC 12228; above 64 µg/mL in the test with MRSA ATCC 43300; above 64 µg/mL with MRSA 16-34; 32 µg/mL with MSSE 16-5; above 64 µg/mL in the test with MRSA ATCC-B AA-1708. In addition, the MIC with S.s ATCC 15305 is above 64 µg/mL; in the test on S.h ATCC 35982, 64 µg/mL; in the test with VISA ATCC 700699, 64 µg/mL; in the test with VISA ATCC 700698 it was above 64 µg/mL; in the test with MSSA 16-1 it was 64 µg/mL; in the test with MSSA ATCC 29213, above 64 µg/mL. In addition, the MIC is 64 µg/mL in the test on MRSA ATCC -BAA-976; above 64 µg/mL with MRSA 13-23; 64 µg/mL in the test on MRSE 13-3; 32 µg/mL with MRSE 16-5; above 64 µg/mL with MRSA 13-18.
Regarding `COc1ccc2c(c[n+]3ccc4cc5c(c6c(Cc7ccc([N+](=O)[O-])cc7)cc2c3c46)OCO5)c1O` [13r, 1,2-Methylenedioxy-8-hydroxy-9-methoxy-13-p-nitrobenzylcycloberberine chloride], the MIC with MSSA 15 came out at 8 µg/mL; with MSSE ATCC 12228, 4 µg/mL; in the test on MRSA ATCC 43300 it was 64 µg/mL; in the test with MRSA 16-34 it was 8 µg/mL; in the test on MSSE 16-5, 4 µg/mL; in the test on MRSA ATCC-B AA-1708 it was 4 µg/mL. The MIC was 32 µg/mL in the test on S.s ATCC 15305; 8 µg/mL with S.h ATCC 35982; 4 µg/mL in the test on VISA ATCC 700699; 4 µg/mL in the test on VISA ATCC 700698; 16 µg/mL with MSSA 16-1; 16 µg/mL with MSSA ATCC 29213. The MIC was 32 µg/mL with MRSA ATCC -BAA-976; 8 µg/mL with MRSA 13-23; above 64 µg/mL in the test on MRSE 13-3; 16 µg/mL with MRSE 16-5; 32 µg/mL in the test on MRSA 13-18.
Turning to `CCCc1cc2c3ccc(OC)c(O)c3c[n+]3ccc4cc5c(c1c4c23)OCO5` [15b, 1,2-Methylenedioxy-8-hydroxy-9-methoxy-13-propylcycloberberine chloride], the MIC with MSSA 15 was determined as 2 µg/mL; with MSSE ATCC 12228, 2 µg/mL; in the test on MRSA ATCC 43300, 4 µg/mL; in the test on MRSA 16-34, 2 µg/mL; in the test with MSSE 16-5, 1 µg/mL; with MRSA ATCC-B AA-1708, 2 µg/mL. The MIC amounted to 8 µg/mL in the test on S.s ATCC 15305; 2 µg/mL with S.h ATCC 35982; 2 µg/mL in the test on VISA ATCC 700699; 4 µg/mL in the test with VISA ATCC 700698; 2 µg/mL in the test with MSSA 16-1; 2 µg/mL with MSSA ATCC 29213. Moreover, the MIC was 2 µg/mL with MRSA ATCC -BAA-976; 4 µg/mL with MRSA 13-23; 4 µg/mL in the test with MRSE 13-3; 2 µg/mL with MRSE 16-5; 4 µg/mL with MRSA 13-18.
As to `CCCCc1cc2c3ccc(OC)c(O)c3c[n+]3ccc4cc5c(c1c4c23)OCO5` [15c, 1,2-Methylenedioxy-8-hydroxy-9-methoxy-13-butylcycloberberine chloride], the MIC with MSSA 15 came out at 4 µg/mL; in the test with MSSE ATCC 12228 it was 8 µg/mL; with MRSA ATCC 43300, 4 µg/mL; in the test with MRSA 16-34, 8 µg/mL; with MSSE 16-5, 8 µg/mL; in the test on MRSA ATCC-B AA-1708 it was 8 µg/mL. Moreover, the MIC with S.s ATCC 15305 came out at 16 µg/mL; with S.h ATCC 35982, 4 µg/mL; in the test on VISA ATCC 700699 it was 4 µg/mL; in the test on VISA ATCC 700698, 4 µg/mL; with MSSA 16-1, 4 µg/mL; with MSSA ATCC 29213 it was 8 µg/mL. The MIC in the test on MRSA ATCC -BAA-976 amounted to 4 µg/mL; in the test with MRSA 13-23, 8 µg/mL; in the test on MRSE 13-3, 16 µg/mL; in the test on MRSE 16-5, 8 µg/mL; with MRSA 13-18, 4 µg/mL.
